Experimental data reported in DBAASP.
In brackets after ≈: the same amount, converted by molar mass.

Columns and labels:
Test in all cases: ≥ marks a high value that may be exact or a test limit, other limits are often not marked, values filed in µg/mL are converted to µM
[1] = test system: Bacillus subtilis
[2] = test system: Escherichia coli ATCC 8739
[3] = test system: Pseudomonas aeruginosa
[4] = test system: Staphylococcus epidermidis
[5] = test system: Escherichia coli ATCC 25922
[6] = test system: Klebsiella pneumoniae
[7] = test system: Pseudomonas aeruginosa ATCC 27853
[8] = test system: Staphylococcus aureus ATCC 43300
[9] = test system: Staphylococcus aureus ATCC 6538
[10] = test system: Candida albicans ATCC 90028
[11] = test system: Escherichia coli ATCC 25726
[12] = test system: Staphylococcus aureus ATCC 25923
[13] = test system: Bacillus subtilis KCTC 3068
[14] = test system: Escherichia coli KCTC 1682
[15] = test system: Pseudomonas aeruginosa KCTC 1637
[16] = test system: Salmonella typhimurium KCTC 1926
[17] = test system: Staphylococcus aureus KCTC 1621
[18] = test system: Staphylococcus epidermidis KCTC 1917

CC(C)C[C@H](NC(=O)[C@H](CCCCN)NC(=O)[C@H](Cc1c[nH]c2ccccc12)NC(=O)[C@H](C)N)C(=O)N[C@@H](Cc1ccccc1)C(=O)N[C@@H](CC(=O)O)C(=O)N[C@@H](CC(=O)O)C(=O)NCC(=O)N[C@H](C(=O)O)C(C)C [AWKLFDDGV]
MIC [1]: 30 µM (≈ 31.5 µg/mL) | MIC [2]: 30 µM (≈ 31.5 µg/mL) | MIC [3]: 30 µM (≈ 31.5 µg/mL) | MIC [4]: ≥ 60 µM

CC[C@H](C)[C@H](NC(=O)[C@H](CCCCN)NC(=O)[C@H](CCCN=C(N)N)NC(=O)CNC(=O)[C@H](CC(C)C)NC(=O)[C@H](CCCN=C(N)N)NC(=O)[C@H](CCCN=C(N)N)NC(=O)[C@H](CC(C)C)NC(=O)CNC(=O)CNC(C)=O)C(=O)N[C@@H](CC(C)C)C(=O)N[C@@H](CCCN=C(N)N)C(=O)N[C@@H](C)C(=O)N[C@H](C(=O)N[C@@H](CCCCN)C(=O)N[C@@H](CCCCN)C(=O)N[C@@H](Cc1ccc(O)cc1)C(=O)NCC(N)=O)C(C)C [GGLRRLGRKILRAVKKYG]
MIC [5]: 8.84 µM (≈ 18.4 µg/mL) | MIC [2]: 4.42 µM (≈ 9.2 µg/mL) | MIC [6]: 8.84 µM (≈ 18.4 µg/mL) | MIC [7]: 8.84 µM (≈ 18.4 µg/mL)

CC[C@H](C)[C@H](NC(=O)[C@H](CCCCN)NC(=O)[C@H](CC(C)C)NC(=O)CNC(=O)[C@H](CC(C)C)NC(=O)[C@H](CO)NC(=O)[C@H](CCCN=C(N)N)NC(=O)[C@H](CC(C)C)NC(=O)CNC(=O)CNC(C)=O)C(=O)N[C@@H](CC(C)C)C(=O)N[C@@H](CC(C)C)C(=O)N[C@@H](C)C(=O)N[C@@H](Cc1c[nH]c2ccccc12)C(=O)N[C@@H](CCCCN)C(=O)N[C@@H](CCCCN)C(=O)N[C@@H](Cc1ccc(O)cc1)C(=O)NCC(N)=O [GGLRSLGLKILLAWKKYG]
MIC [5]: > 100 µM | MIC [2]: ≥ 100 µM | MIC [6]: > 100 µM | MIC [7]: > 100 µM

CC[C@H](C)[C@H](NC(=O)[C@H](CCCCN)NC(=O)[C@@H](NC(=O)[C@H](CO)NC(=O)[C@H](CC(N)=O)NC(=O)[C@H](Cc1c[nH]c2ccccc12)NC(=O)[C@H](CC(C)C)NC(=O)CN)[C@@H](C)CC)C(=O)N[C@@H](C)C(=O)NCC(=O)N[C@@H](CCCCN)C(=O)N[C@@H](CCCCN)C(=O)N[C@@H](CC(C)C)C(=O)N[C@@H](Cc1ccccc1)C(=O)N[C@H](C(=O)N[C@@H](CC(N)=O)C(=O)N[C@H](C(=O)N[C@@H](CC(C)C)C(=O)N[C@@H](CC(=O)O)C(=O)N[C@@H](CCCCN)C(=O)N[C@H](C(=O)N[C@@H](CCCN=C(N)N)C(=O)N[C@H]1CSSC[C@@H](C(=O)N[C@@H](CCCCN)C(=O)N[C@H](C(=O)N[C@@H](CO)C(=O)N2CCC[C@H]2C(=O)N[C@@H](CC(=O)O)C(=O)N[C@H](C(=O)N[C@@H](CCC(=O)O)C(=O)O)C(C)C)[C@@H](C)O)NC(=O)CNC(=O)CNC(=O)[C@H](C)NC(=O)[C@H](C(C)C)NC(=O)[C@H](CCCCN)NC1=O)[C@@H](C)CC)C(C)C)C(C)C [GLWNSIKIAGKKLFVNVLDKIRCKVAGGCKTSPDVE]
MIC [2]: 6.3 µM (≈ 24.5 µg/mL) | MIC [8]: 100 µM (≈ 389 µg/mL) | MIC [9]: 6.3 µM (≈ 24.5 µg/mL)

CC[C@H](C)[C@H](NC(=O)[C@H](CCCCN)NC(=O)[C@@H](NC(=O)[C@@H](NC(=O)[C@H](CCCCN)NC(=O)CNC(=O)[C@H](CC(C)C)NC(=O)[C@@H](NC(=O)[C@H](CO)NC(=O)CNC(=O)[C@H](C)NC(=O)[C@H](CCCCN)NC(=O)[C@H](CO)NC(=O)[C@H](C)NC(=O)[C@H](CCSC)NC(=O)CN)C(C)C)[C@@H](C)CC)[C@@H](C)O)C(=O)N[C@@H](C)C(=O)N[C@@H](CC(C)C)C(=O)NCC(=O)N[C@@H](C)C(=O)N[C@@H](CC(C)C)C(N)=O [GMASKAGSVLGKITKIALGAL]
MIC [10]: ≥ 50 µM | MIC [11]: 12.5 µM (≈ 24.8 µg/mL) | MIC [12]: 100 µM (≈ 199 µg/mL)

CC[C@H](C)[C@H](NC(=O)[C@H](CCCCN)NC(=O)[C@H](Cc1c[nH]c2ccccc12)NC(=O)[C@H](Cc1ccccc1)NC(=O)[C@H](CC(C)C)NC(=O)[C@H](CCCCN)NC(=O)[C@H](CCCCN)NC(=O)[C@@H](N)CCCCN)C(=O)N1CCC[C@H]1C(=O)N[C@@H](CCCCN)C(=O)N[C@@H](Cc1ccccc1)C(=O)N[C@@H](CC(C)C)C(=O)N[C@@H](Cc1cnc[nH]1)C(=O)N[C@@H](CC(C)C)C(=O)N[C@@H](C)C(=O)N[C@@H](CCCCN)C(=O)N[C@@H](CCCCN)C(=O)N[C@@H](Cc1ccccc1)C(N)=O [KKKLFWKIPKFLHLAKKF]
MIC [13]: 1 µM (≈ 2.3 µg/mL) | MIC [14]: 2 µM (≈ 4.6 µg/mL) | MIC [15]: 2 µM (≈ 4.6 µg/mL) | MIC [16]: 1 µM (≈ 2.3 µg/mL) | MIC [17]: 2 µM (≈ 4.6 µg/mL) | MIC [18]: 1 µM (≈ 2.3 µg/mL)

CC[C@H](C)[C@H](NC(=O)[C@H](C)NC(=O)[C@@H](NC(=O)[C@H](C)NC(=O)CNC(=O)[C@H](CCCCN)NC(=O)[C@@H](NC(=O)[C@H](C)NC(=O)CNC(=O)[C@H](CCCCN)NC(=O)[C@H](CC(C)C)NC(=O)[C@@H](NC(=O)[C@H](CCCCN)NC(=O)[C@H](CCCCN)NC(=O)[C@H](CC(C)C)NC(=O)[C@@H](NC(=O)[C@H](CC(=O)O)NC(=O)[C@H](CCCCN)NC(=O)[C@@H](NC(=O)[C@H](CCC(=O)O)NC(=O)[C@@H]1CCCN1C(=O)[C@H](CO)NC(=O)[C@H](CC(C)C)NC(=O)[C@H](CCCCN)NC(=O)[C@@H](N)CC(C)C)[C@@H](C)O)[C@@H](C)O)C(C)C)[C@@H](C)CC)[C@@H](C)CC)C(=O)N[C@@H](C)C(=O)N[C@@H](CO)C(=O)N[C@@H](CC(C)C)C(=O)N[C@@H](C)C(N)=O [LKLSPETKDTLKKVLKGAIKGAIAIASLA]
MIC [11]: ≥ 40 µM | MIC [12]: 5 µM (≈ 14.9 µg/mL)

CC[C@H](C)[C@H](NC(=O)[C@H](CCCCN)NC(=O)[C@H](CO)NC(=O)[C@H](C)NC(=O)[C@@H](NC(=O)[C@H](CCCN=C(N)N)NC(=O)[C@H](CC(=O)O)NC(=O)[C@H](CC(C)C)NC(=O)[C@H](CC(C)C)NC(=O)[C@H](CCCCN)NC(=O)[C@H](CC(C)C)NC(=O)[C@@H](NC(=O)[C@@H](NC(=O)[C@H](CC(N)=O)NC(=O)[C@H](CC(N)=O)NC(=O)[C@@H](NC(=O)[C@H](CCCCN)NC(=O)[C@H](CCCCN)NC(=O)[C@@H]1CCCN1)[C@@H](C)CC)[C@@H](C)O)[C@@H](C)CC)C(C)C)C(=O)O [PKKINNTILKLLDRVASKI]
MIC [2]: 29.6 µM (≈ 64 µg/mL)

CC[C@H](C)[C@H](NC(=O)[C@H](CCCCN)NC(=O)[C@H](CO)NC(=O)[C@H](CO)NC(=O)[C@H](CC(C)C)NC(=O)[C@H](CCCCN)NC(=O)[C@H](CCCCN)NC(=O)[C@H](CC(C)C)NC(=O)[C@H](CC(C)C)NC(=O)[C@H](CCCCN)NC(=O)[C@H](CCC(N)=O)NC(=O)[C@H](Cc1ccc(O)cc1)NC(=O)[C@H](Cc1ccccc1)NC(=O)[C@H](CCC(N)=O)NC(=O)[C@H](CO)NC(=O)[C@H](CCC(=O)O)NC(=O)[C@H](CCCN=C(N)N)NC(=O)[C@H](CC(N)=O)NC(=O)[C@@H]1CCCN1)C(=O)O [PNRESQFYQKLLKKLSSKI]
MIC [2]: ≥ 111 µM | MIC [12]: 111 µM (≈ 256 µg/mL)

CC[C@H](C)[C@@H]1NC(=O)[C@@H]2CCCN2C(=O)[C@H](CC(C)C)NC(=O)[C@@H]2CCCN2C(=O)[C@H]([C@@H](C)CC)NC(=O)[C@H](Cc2c[nH]c3ccccc23)NC(=O)[C@H](CO)NC(=O)[C@@H](NC(=O)[C@@H](NC(=O)[C@@H](N)CCCN=C(N)N)C(C)C)CSSC[C@@H](C(=O)N[C@@H](Cc2cnc[nH]2)C(N)=O)NC1=O [RVCSWIPLPICH]
MIC [11]: ≥ 500 µM | MIC [12]: 250 µM (≈ 355 µg/mL)

CC(C)C[C@H](NC(=O)[C@H](Cc1c[nH]c2ccccc12)NC(=O)[C@H](CCCN=C(N)N)NC(=O)[C@H](CCCCN)NC(=O)[C@H](Cc1c[nH]c2ccccc12)NC(=O)[C@H](CCCN=C(N)N)NC(=O)[C@H](CCC(N)=O)NC(=O)[C@@H](NC(=O)[C@H](Cc1c[nH]c2ccccc12)NC(=O)[C@H](CCCN=C(N)N)NC(=O)[C@H](CCCCN)NC(=O)[C@@H](N)Cc1c[nH]c2ccccc12)C(C)C)C(=O)N[C@@H](CCCN=C(N)N)C(N)=O [WKRWVQRWKRWLR]
MIC [13]: 8 µM (≈ 15.9 µg/mL) | MIC [14]: 4 µM (≈ 7.93 µg/mL) | MIC [15]: 16 µM (≈ 31.7 µg/mL) | MIC [16]: 2 µM (≈ 3.97 µg/mL) | MIC [17]: 2 µM (≈ 3.97 µg/mL) | MIC [18]: 4 µM (≈ 7.93 µg/mL)
